Columns and labels:
[1] = test system: H3K27me3 in H3K27M tumor cells (Peds8); test: Global H3K27 trimethylation in H3K27M tumor cells after treatment; format: cell-based; settings: vs no treatment (NT), FIG. 6B-D
Description: (§1) The role of STAT3 in midline H3K27M tumors (e.g., diffuse midline H3K27M tumors) has not been studied. To further validate STAT3 signaling as a potential drug target in these patients, it was determined if STAT3 is required for proliferation of H3K27M cells. […] Because of the critical dependence of STAT3 signaling in H3K27M tumor cells, the activity of STAT3 (pSTAT3) would be elevated in patients with DIPG tumors. Using treatment naive surgical samples from DIPG patients, an increase (>10-fold) in pSTAT3 levels was observed as compared to non-neoplastic brain tissues from other surgeries (FIG. 5A). Using large cohorts from published data sets, it was also seen a >2-fold increase in STAT3 mRNA expression (RNA-seq) in DIPG patients compared to normal brainy (FIG. 5B). In addition, pSTAT3 expression levels were increased in H3K27M cell lines compared to WT lines in both pediatric and adult high-grade gliomas (FIG. 6). […] The data presented supports a method of treating glioma with H3K27M mutation by restoration of methylation pattern. In one example, the methylation pattern is restored by a H3K27me3 demethylase inhibitor (e.g., GSK-J4).

WT SF9427 cell line = test: Cell viability, STAT3 inhibitors, WT SF9427 cell line; format: cell-based; settings: WT SF9427 cells, FIG. 4B/4C
Description: (§2) Results are mean±SD of three independent experiments. B and C. H3K27M cells (Peds8 and DIPG8) are selectively sensitive to inhibition by STAT3 inhibitors. […] C.
as §1

DIPG8 H3K27M cells = test: Cell viability, STAT3 inhibitors, H3K27M cells DIPG8; format: cell-based; settings: FIG. 4B/4C
Description: as §2, §1

Peds8 H3K27M cells = test: Cell viability, STAT3 inhibitors, H3K27M cells Peds8; format: cell-based
Description: as §2, §1

H3K27M tumor Peds17 = test system: H3K27M tumor Peds17; parameters: species or system mice; settings: mouse, in vivo, po
Description: H3K27M tumor Peds17 treated with STAT3 inhibitor WP1066 (20 mg/kg oral gavage) vs. control (DMSO) for 8 weeks. […] Cohorts of mice (n=10/group), were implanted in the brainstem and BLI was performed weekly using IVIS Lumina imaging system using luciferase transfected tumor cells.
To validate STAT3 as a therapeutic target for H3K27M tumors, the effects on tumor growth with WP1066 were evaluated in intracranial orthotopic xenografts (FIG. 7).

Row | Structure (SMILES) | H3K27me3 level [1] | IC50 (WT SF9427 cell line) | IC50 (DIPG8 H3K27M cells) | IC50 (Peds8 H3K27M cells; Peds8 (H3K27M) cells, FIG. 4B/4C) | cell viability of two H3K27M DIPG cell lines (Peds8 H3K27M cells; two H3K27M DIPG cell lines, much less in WT SF9427 cell line) | toxicities in the mice (H3K27M tumor Peds17)
1 | C[C@H](NC(=O)/C(C#N)=C/c1cccc(Br)n1)c1ccccc1 [WP1066] | increases H3K27me3 | 62.3 µM | 2500 nM | 1900 nM | inhibited cell viability | no toxicities were noted
2 | CCOC(=O)CCNc1cc(N2CCc3ccccc3CC2)nc(-c2ccccn2)n1 [GSKJ4] | increases H3K27me3 | – | – | – | – | –
